Test results: patent US20250361217A1, “FATTY ACID COMPOUNDS” (University of Pittsburgh - Of the Commonwealth System of …, priority 2022, published 2025)

Legend:
[1] = Cassette PK of branched vs straight-chain FA-AA (NAA) conjugates, oral or intraperitoneal; format: in vivo, mice; conditions: 30 mg/kg; for levels in liver, rank among the groups / levels in plasma, rank among the groups: both intraperitoneal and oral administration
Protocol: A library of branched fatty acid-amino acid (FA-AA) conjugates was synthesized, exemplified in the table above. […] The absorption of the selected straight chain vs. branched FA-AA conjugates was compared in a cassette PK study as described below in more detail. A mixture of all the FA-AA conjugates (with or without branching) was concomitantly administered orally to mice (n=4-5, 30 mg/kg each compound). […] The absorption improvement resulting from the branching of the fatty acids was ubiquitous across all the FA-AA conjugates independent of the choice of amino acids. In contrast, all tested FA-AA conjugated dosed intraperitoneally (n=4-5, 30 mg/kg each compound) reached significant levels in circulation, bypassing the first-pass metabolism.
Two cassette PK experiments were performed to compare the pharmacokinetics of dimethyl acyl amino acids (acyl-2M-amino acids) with their natural, non-branched analogs and evaluate the increased half-life, oral bioavailability, and liver concentrations obtained by the invention (introduction of the dimethyl (2M) branching).
Groups of mice (n=4 per time point per group) were used. The compounds were delivered using a cassette pharmacokinetic design by oral gavage or by intraperitoneal injections at a dose of 30 mg/kg. Groups are detailed in table 1. To note, the methyl ester of C18:0-2M-Gly was abbreviated as C18:0-2M-Gly-Me.
The following groups were used, and the time points were 0, 1, 2, and 4 h for intraperitoneal administration and 0, 2, and 4 h for oral administration.

[2] = system: C57BL6 mice fed with the NASH diet; test: Oral treatment in established NASH mouse model; format: in vivo; conditions: oral 10 mg/kg/day, 6 weeks
Protocol: This study defined the protective properties of branched FA-AA conjugates and the enhanced potency of 11U3-2M conjugated to Leucine (Leu) when administered orally in an established NASH mouse model. C57BL6 mice were fed with the NASH diet for 16 weeks and then orally administered with vehicle (n=10), C18:1-Leu (n=10), C18:1-2M-Leu (n=8) and 11U3-2M-Leu (n=12) (10 mg/kg/day) for 6 weeks while on the NASH diet. Mice were sacrificed and organs were collected for further analysis.

[3] = system: mice with established NASH; conditions: intraperitoneal administration; cited from earlier work

| SMILES | levels in liver, rank among the groups [1] | levels in plasma, rank among the groups [1] | expression of genes regulating lipogenesis in liver [2] | fibrosis and cell death genes (e.g., collagens and TGF-b) in liver [2] | plasma alanine transaminase (ALT) [2] | plasma aspartate transaminase (AST) [2] | further results |
| --- | --- | --- | --- | --- | --- | --- | --- |
| CCCc1ccc(CCCCCCCCCC(C)(C)C(=O)NCC(=O)O)o1 [11U3-2M-Gly, (2,2-Dimethyl-11-(5-propylfuran-2-yl)undecanoyl)glycine] | highest levels | highest levels | – | – | – | – | – |
| CCCc1ccc(CCCCCCCCCC(C)(C)C(=O)NC(CC(C)C)C(=O)O)o1 (stereo not shown) [11U3-2M-Leu] | highest levels | highest levels | suppressed | anti-fibrotic actions | significantly decreased | significantly decreased | plasma concentration over time (resistance to metabolism) vs 11U3-Leu ([1]; mice): maintained over a longer period; AUC0-4 vs all the straight-chain analogs ([1]; intraperitoneal): significantly higher; Cmax vs all the straight-chain analogs ([1]; intraperitoneal): significantly higher; metabolism vs all the straight-chain analogs ([1]; intraperitoneal): slower metabolism; cholesterol levels [2]: significantly decreased; expression of key genes regulating fatty acid oxidation (PPARα signaling pathway) in liver [2]: significantly induced; inflammatory effect in the NASH animals (FIG. 23) [2]: anti-inflammatory; liver weight in comparison to vehicle control [2]: significant decrease; liver/body weight ratio in comparison to vehicle control [2]: significant decrease |
| CCCCCCCCC=CCCCCCCC(C)(C)C(=O)N[C@@H](CC(C)C)C(=O)O [C18:1-2M-Leu, (2,2-dimethyloctadec-9-enoyl)leucine] | – | – | suppressed | anti-fibrotic actions | significantly decreased | significantly decreased | – |
| CCCCCCCC/C=C\CCCCCCCC(=O)N[C@@H](CC(C)C)C(=O)O [C18:1-Leu, N-oleoyl leucine] | – | – | – | – | – | – | steatosis, inflammation and fibrosis in mice with established NASH [3]: improved steatosis, and lowered inflammation and fibrosis |
